Results: patent US8653132B2, “Phosphaplatins and their use in pharmaceutical compositions” (Ohio University, priority 2007, dated 2014)
Like-named read-outs stand apart in the source and are kept apart here.

Experiments:
[1] = system: synthetic 25-mer oligonucleotide (SEQ ID NO:1); assay: Platinum-DNA binding by NMR, 25-mer oligonucleotide; conditions: 1H NMR, identical conditions for both complexes
Description: (§1) In the associated experiment, dach-2 was allowed to react with double-stranded calf-thymus DNA, a synthetic oligonucleotide (5′-[…]-3′; SEQ ID NO:1), a dinucleotide (dGpG), and nucleotide monophosphates (5′-dGMP and 5′-dAMP) at concentrations as much as 250-times higher than those of cellular doses. The extent of DNA binding was monitored by ^1H NMR spectroscopy. In parallel, similar reactions with cisplatin were conducted under identical conditions.
(§2) Proton NMR spectroscopic experiments were conducted on a Bruker 500 MHz NMR instrument in 99% (atom) D2O with a water suppression pulse sequence. Samples contained cisplatin (2.0 mM) or pyrodach-2 (2.0 mM) and nucleotides (5′-dGMP, 5′-dAMP, dGpG (5.0 mM)), and, single- and double stranded DNA (calf thymus, 5.0 mM) at pH 7.0 maintained by phosphate and carbonate buffers (10-20 mM). Reactions of cisplatin (0.25 mM) and pyrodach-2 (0.25 mM) with a synthetic 25-mer: 5′-[…]-3′ (SEQ ID NO: 1) (0.25 mM) were also performed under identical conditions. Reactions were carried out up to 7 days, and ^1H and ^31P NMR spectra were recorded at regular time intervals. Usually, a pulse width of 5 μs with a 1.0 s repetition delay was used for the measurements. Typically, a sweepwidth of 10,000 Hz and 32 K data points were selected to collect the Free Induction Decays. A line broadening factor of 1 Hz was for applied Fourier transformation. […]

[2] = system: A2780 cells; assay: Cellular accumulation of platinum by atomic absorption, A2780; assay type: cell-based, human; conditions: for Cellular accumulation of platinum: 1 hr exposure
Description: Platinum content was quantitatively estimated on a Graphite Furnace Atomic Absorption Spectrometer (Perkin Elmer AA-600) from calibration curves established by using cisplatin or pyrodach-2 in water. Cells (5×10^6) were seeded in T75 cm^2 flasks. After 24 h, these cells were then treated with the different concentrations (0, 10, 20, 30 and 50 μM) of cisplatin and pyrodach-2. After 1 hr exposure with the platinum complexes, the drug-containing medium was removed and the cells were washed with ice-cold phosphate-buffered saline (PBS). The cells were then trypsinized and centrifuged into a pellet. Cell pellets were digested in concentrated HNO3 and H2O2 prior to analysis, according to the method of McGahan. Data reported in Table 4 were collected from three independent experiments each was carried out in duplicate. For the cisplatin accumulation, data were obtained from triplicate runs from a single sample at a given concentration.

[3] = system: UMSCC10b (Cisplatin-sensitive) cells; assay: Cytotoxicity in head and neck cancer cells, cisplatin-sensitive; assay type: cell-based, human
Description: (§3) The UMSCC10b (Cisplatin-sensitive) and UMSCC10b/15s (Cisplatin-resistant) cell lines derived from human head and neck squamous cell cancer were lines were obtained from Dr. Stephen B. Howell of the University of California, Dan Diego. Cells were cultured in 1640 RPMI with 10% fetal bovine serum, 100 units/ml penicillin and 100 μg/m1 of streptomycin. Cells were seeded into 24-well plates with approximately 20,000 cells/500 μl of media in each well plate. Cells were exposed to dach-2 with variable concentrations ranging from 1.12 μM to maximum of 72 μM. Stock solutions of dach-2 complex were prepared and aliquots of these solutions were added to make those effective concentrations. Cells were then allowed to grow for 72 hours. Twelve different concentrations were used in this study. Each concentration had one control for a total of 12 controls.

[4] = system: UMSCC10b/15s (Cisplatin-resistant) cells; assay: Cytotoxicity in head and neck cancer cells, cisplatin-resistant; assay type: cell-based, human
Description: as §3

[5] = pKa from 31P chemical shift as a function of pH; assay type: physicochemical
[6] = system: BAX; assay: Apoptotic gene array, real-time PCR: BAX; assay type: cell-based; conditions: preliminary
Description: (§4) Preliminary gene expression experiments involving complexes of the present invention as compared to cisplatin (data not shown) were carried out with an apoptotic array containing 84 genes that includes the BCL2 superfamily, both pro- and anti-apoptotic, caspases, the BIR-family, TNF receptor […] factors, p53 and its congeners, and fas associated members by real-time PCR. A closer look at the two sets of gene expressions clearly indicates a number of differences in the expression patterns. […] Specifically, fas was over-expressed by 6-fold compared to the control, and TNFRS genes such as TNFRSF-10B was overexpressed by 2-3 folds over controls. These latter receptor factors belong to the fas superfamily.

[7] = system: calf-thymus DNA, oligonucleotide, dGpG, 5'-dGMP and 5'-dAMP; assay: Platinum binding to DNA and nucleotides by NMR; conditions: 1H NMR, up to seven days
Description: as §1, §2

[8] = system: fas; assay: Apoptotic gene array, real-time PCR: fas; assay type: cell-based; conditions: preliminary
Description: as §4

[9] = system: guanine base; assay: Guanine base binding by proton NMR; conditions: cisplatin after 48 hours, am-2 96 hours, dach-2 106 hours
Description: FIG. 12 is a comparison of guanine base binding (the predominant DNA binding site of cisplatin) among cisplatin (bottom), am-2 (middle), and dach-2 (top) by proton NMR spectroscopy. […] The bottom spectrum was recorded after 48 hours. The middle and top spectra were recorded after 96 and 106 hours, respectively.
Proton NMR spectroscopic experiments were conducted on a Bruker 500 MHz NMR instrument in 99% (atom) D2O with a water suppression pulse sequence. Samples contained cisplatin (2.0 mM) or pyrodach-2 (2.0 mM) and nucleotides (5′-dGMP, 5′-dAMP, dGpG (5.0 mM)), and, single- and double stranded DNA (calf thymus, 5.0 mM) at pH 7.0 maintained by phosphate and carbonate buffers (10-20 mM). Reactions of cisplatin (0.25 mM) and pyrodach-2 (0.25 mM) with a synthetic 25-mer: 5′-[…]-3′ (SEQ ID NO: 1) (0.25 mM) were also performed under identical conditions. Reactions were carried out up to 7 days, and ^1H and ^31P NMR spectra were recorded at regular time intervals. Usually, a pulse width of 5 μs with a 1.0 s repetition delay was used for the measurements. Typically, a sweepwidth of 10,000 Hz and 32 K data points were selected to collect the Free Induction Decays. A line broadening factor of 1 Hz was for applied Fourier transformation. The chemical shifts, with reference to H—O-D peak, are at 4.67 ppm.

[10] = calculated from phosphorus-31 chemical shifts

NC1CCCCC1N.O=P([O-])(O)OP(=O)([O-])O.[Pt+2] [dach-2, (Trans-1,2-cyclohexanediamine)(dihydrogenpyrophosphato)platinum(II)]
DNA binding, 25-mer oligonucleotide [1]: does not exhibit any measurable DNA binding
Cellular accumulation of platinum ([2]; A2780, 10 μM): 1.00 ± 0.10 ng/10^6 cells
Cellular accumulation of platinum ([2]; A2780, 20 μM): 1.50 ± 0.30 ng/10^6 cells
Cellular accumulation of platinum ([2]; A2780, 30 μM): 3.00 ± 1.00 ng/10^6 cells
Cellular accumulation of platinum ([2]; A2780, 50 μM): 5.00 ± 0.30 ng/10^6 cells
accumulation in A2780 cells ([2]; at 10 μM concentration): 1.0 ng Pt/10^6 cells
IC50 ([3]; 72 hours growth, estimated, read-out: IC50 for UMSCC10b (Cisplatin-sensitive)): < 1 µM
IC50 ([3]; FIG. 9 legend, read-out: IC50 cisplatin-sensitive head and neck cancer cells): < 1 µM
IC50 ([4]; 72 hours growth, read-out: IC50 for UMSCC10b/15s (Cisplatin-resistant)): 5 µM
IC50 ([4]; FIG. 9 legend, read-out: IC50 cisplatin-resistant head and neck cancer cells): < 5 µM
pKa1 [5, 10]: 2.6 ± 0.2
pKa2 [5, 10]: 4.4 ± 0.2
pKa1 (value in parentheses) ([5]; second value printed in parentheses under pKa1, not explained): (3.3 ± 0.1)
BAX overexpression [6]: 2-3 folds
adduct formation with nucleotides [7]: no detectable NMR signals
fas over-expression compared to the control [8]: 6 fold
guanine base binding (H8 signal) [9]: exhibits a signal for the free guanine base at 8.05 ppm
